IC50 data for 24 compounds are collected here from US11478460B2, “Diaryl substituted 6,5-fused ring compounds as C5aR inhibitors” (CHEMOCENTRYX, INC., priority 2017, dated 2022).

SMILES strings stand for the structures.

Sequence of C5aR (P21730 whole entry): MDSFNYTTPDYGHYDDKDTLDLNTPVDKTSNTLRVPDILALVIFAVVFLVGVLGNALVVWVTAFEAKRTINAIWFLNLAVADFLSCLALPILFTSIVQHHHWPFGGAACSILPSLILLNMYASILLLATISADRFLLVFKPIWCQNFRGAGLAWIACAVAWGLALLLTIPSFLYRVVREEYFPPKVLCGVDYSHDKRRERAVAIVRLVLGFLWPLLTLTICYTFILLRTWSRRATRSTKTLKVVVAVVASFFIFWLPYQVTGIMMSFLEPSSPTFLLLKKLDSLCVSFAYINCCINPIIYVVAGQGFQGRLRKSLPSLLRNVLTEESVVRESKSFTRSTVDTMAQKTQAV

This assay has as its target C5aR (Homo sapiens (Human), UniProt P21730). The assay can be described thus: Chemotaxis assay using U937 cells (C5aR mediated migration). The class given is cell-based. To be noted: read-out: Mig IC50. The procedure: U937 cells are a monocytic cell line which express C5aR, and are available from ATCC (VA). These cells were cultured as a suspension in RPMI-1640 medium supplemented with 2 mM L-glutamine, 1.5 g/L sodium bicarbonate, 4.5 g/L glucose, 10 mM HEPES, 1 mM sodium pyruvate, and 10% FBS. Cells were grown under 5% CO2/95% air, 100% humidity at 37° C. and subcultured twice weekly at 1:6 (cells were cultured at a density range of 1×10^5 to 2×10^6 cells/mL) and harvested at 1×10^6 cells/mL. Prior to assay, cells are treated overnight with 0.5 mM of cyclic AMP (Sigma, OH) and washed once prior to use. cAMP treated U937 cells can be used in C5aR ligand binding and functional assays.
Optionally, compounds may be further assayed for their ability to inhibit chemotaxis in cells. Chemotaxis assays are performed using 5 μm pore polycarbonate, polyvinylpyrrolidone-coated filters in 96-well chemotaxis chambers (Neuroprobe; Gaithersburg, Md.) using chemotaxis buffer (Hank's balanced salt solution (HBSS) and 1% FBS). C5aR ligands (i.e., C5a, R&D Systems; Minneapolis, Minn.) are use to evaluate compound mediated inhibition of C5aR mediated migration. Other chemokines (i.e., SDF-1α; R&D Systems; Minneapolis, Minn.) are used as specificity controls. The lower chamber is loaded with 29 μl of chemokine (i.e., 0.03 nM C5a) and varying amounts of compound; the top chamber contains 100,000 U937 or neutrophil cells in 20 μl. The chambers are incubated 1.5 hours at 37° C., and the number of cells in the lower chamber quantified either by direct cell counts in five high powered fields per well or by the CyQuant assay (Molecular Probes), a fluorescent dye method that measures nucleic acid content and microscopic observation.
The compounds in Table 1, below, were prepared using the methods described above. Characterization data is provided for each compound listed. Activity is provided as follows for the chemotaxis assay using U937 cells as described herein (Example 12): +, 500 nM<IC50; ++, 50 nM<IC50≤500 nM; +++, 5 nM<IC50≤50 nM; and ++++, IC50≤5 nM.
Usually IC50 stands for the midpoint of a concentration-inhibition curve. With `CCc1cccc(CC)c1-n1nc2c(c1-c1cc(F)c(NC(N)=O)cc1F)CN(C(C)(C)c1cccc(C(F)(F)F)c1)CC2` [Example 1.163], the IC50 is not above 5 nM.

For the compound `Cc1cccc(OCC(C)C)c1-n1nc2c(c1-c1cc(F)c(NC(N)=O)cc1F)CN(c1ncc(F)cc1Cl)CC2` [Example 1.169], the IC50 was not above 5 nM.

`Cc1cc(C(C)C)cnc1N1CCc2nn(-c3c(C)cccc3OCC(C)C)c(-c3ccc(NC(N)=O)cc3)c2C1` [Example 1.355]: the IC50 is 5 to 50 nM.

As for `CCc1cccc(CC)c1-n1nc2c(c1-c1ccc(NC(N)=O)cc1)CN(C(C)c1ccccc1C(F)(F)F)CC2` (stereo not drawn) [Example 1.295], the IC50 lay in the range of 5 to 50 nM.

Consider `Cc1cccc(OCC(C)C)c1-n1nc2c(c1-c1cc(F)c(NC(N)=O)cc1F)CN(C(C)(C)C#N)CC2` [Example 1.209], for which the IC50 lay within 50 to 500 nM.

For `CCc1cccc(CC)c1-n1nc2c(c1-c1ccc(NC(N)=O)cc1)CN(Cc1ccccc1C(F)(F)F)CC2` [Example 1.293], the IC50 lay within 5 to 50 nM.

Regarding `Cc1cccc(OCC(C)C)c1-n1nc2c(c1-c1ccc(NC(N)=O)cc1)CN(Cc1ccccc1)CC2` [Example 1.382], the IC50 lay in the range of 5 to 50 nM.

With `CCc1cccc(CC)c1-n1nc2c(c1-c1cc(F)c(NC(N)=O)cc1F)CN(Cc1ccc(C(F)(F)F)cc1F)C(C)(C)C2` [Example 1.050], the IC50 is not above 5 nM.

On to `Cc1cccc(C)c1-n1nc2c(c1-c1cc(F)c(NC(N)=O)cc1F)CN(Cc1ccc(Cl)cc1C(F)(F)F)CC2` [Example 1.061], for which the IC50 is not above 5 nM.

Take `Cc1cccc(OCC(C)C)c1-n1nc2c(c1-c1cc(F)c(NC(N)=O)cc1F)CN(c1ncc(C(C)C)cc1F)CC2` [Example 1.202]: the IC50 was not above 5 nM.

For `Cc1cccc(OCC(C)C)c1-n1nc2c(c1-c1ccc(NC(N)=O)c(F)c1)CN(c1nc(Cl)ns1)CC2` [Example 1.246], the IC50 lay within 5 to 50 nM.

Take `CCc1cccc(CC)c1-n1nc2c(c1-c1cc(F)c(NC(N)=O)cc1F)CN(Cc1ccc(C)cc1C(F)(F)F)CC2` [Example 1.034]: the IC50 is not above 5 nM.

Take `Cc1cccc(OCC(C)C)c1-n1nc2c(c1-c1ccc(NC(N)=O)cc1F)CN(c1ncc(C(F)(F)F)cc1F)CC2` [Example 1.270]: the IC50 is not above 5 nM.

`Cc1cccc(C)c1-n1nc2c(c1-c1cc(F)c(NC(N)=O)cc1F)CN(c1ccccc1Cl)CC2` [Example 1.103]: the IC50 is not above 5 nM.

Take `CCc1cccc(CC)c1-n1nc2c(c1-c1cc(F)c(NC(N)=O)cc1F)CN(Cc1cccn(C)c1=O)CC2` [Example 1.041]: the half-maximal inhibitory concentration (IC50) was more than 500 nM.

Take `C=C(C)c1cnc(N2CCc3nn(-c4c(C)cccc4OCC(C)C)c(-c4ccc(NC(N)=O)c(F)c4)c3C2)c(F)c1` [Example 1.220]: the IC50 was not above 5 nM.

Take `Cc1cccc(OCC(C)C)c1-n1nc2c(c1-c1ccc(NC(N)=O)cc1)CN(Cc1ccc(F)cc1F)CC2` [Example 1.316]: the IC50 was not above 5 nM.

In the case of `Cc1cccc(OCC(C)C)c1-n1nc2c(c1-c1ccc(N)c(Cl)c1)CN(c1ncc(C(F)(F)F)cc1F)CC2` [Example 1.279], the IC50 lay in the range of 5 to 50 nM.

Turning to `Cc1cccc(C)c1-n1nc2c(c1-c1ccc(CO)cc1)CN(c1ccccc1C(C)C)CC2` [Example 1.467], the IC50 was in the range of 50 to 500 nM.

Take `COc1cccc(C)c1-n1nc2c(c1-c1ccc(NC(N)=O)c(C)c1)CN(c1cc(C(C)(C)C)ccc1C)CC2` [Example 1.409]: the IC50 lay within 5 to 50 nM.

For `COc1cccc(C)c1-n1nc2c(c1-c1ccc(N)cc1)CN(c1ccccc1C(C)(C)C)CC2` [Example 1.459], the IC50 was in the range of 5 to 50 nM.

On to `CCc1cccc(CC)c1-n1nc2c(c1-c1cc(F)c(NC(C)=O)cc1F)CN(Cc1ccc(C(F)(F)F)cc1C(F)(F)F)CC2` [Example 1.006], for which the IC50 lay in the range of 5 to 50 nM.

In the case of `CCc1cccc(CC)c1-n1nc2c(c1-c1cc(F)c(NC(N)=O)cc1F)CN(Cc1cc(C(F)(F)F)ccc1C(F)(F)F)C(C)(C)C2` [Example 1.011], the IC50 is not above 5 nM.

As for `Cc1cccc(OCC(C)C)c1-n1nc2c(c1-c1ccc(NC(N)=O)c(F)c1)CN([C@@H](C)C(C)C)CC2` [Example 1.257], the IC50 was not above 5 nM.
